Consider four molecules from patent US20140004499A1, “BIOSURFACE ENGINEERING” (priority 2011, published 2014).

Holding throughout (assay type): cell-based
Assay [1] deals with red blood cells (RBCs). Nature of the assay: Localisation of biotin to RBC surface by attachment of avidinylated beads (DYNABEADS M-280). Here is the method:
The use of aqueous solutions of the construct designated Biotin-S3-S4-S2-chol (III) and the construct designated Biotin-S3-S4-S5-DOPE (IV) in the localisation of biotin (F) to cell surfaces was also compared. Solutions of the two constructs were prepared at substantially equimolar concentrations. The use of the solutions was assessed across a concentration range from 0 to 500 μM (0.5 mM). A 0.5 mM solution of the construct designated Biotin-S3-S4-S2-chol (III) was prepared by dissolving 0.4 mg of the construct in 514 μL of PBS. […] A 0.5 mM stock solution of the construct designated Biotin-S3-S4-S5-DOPE (IV) was prepared by dissolving 2 mg of the construct in 1942 μL of phosphate buffered saline (PBS). Each 0.5 mM solution was warmed to 37° C. for 10 minutes, vortexed and sonicated for 30 seconds to ensure complete dissolution of the construct in the aqueous medium. A dilution series was prepared for each construct to provide a total volume of 100 μL at each of the following concentrations: […]. Equal volumes (40 μL) of packed, washed red blood cells (RBCs) and solutions of constructs at different concentrations were mixed in a glass kimble tube. […]
(§1) Two equal volumes were taken from each tube and centrifuged (300×g for 2 minutes) to provide two equivalent packed cells volumes for further evaluation. One of each pair of equivalent packed cell volumes was evaluated for localisation of the biofunctional moiety biotin to the surface of the RBCs by conjugation with avidin ALEXAFLUOR™. One of each pair of the equivalent packed cell volumes was evaluated for localisation of the biofunctional moiety biotin to the surface of the RBCs by conjugation to avidinylated beads (DYNABEADS™ M-280).
Conjugation with avidinylated beads (DYNABEADS™ M-280) was performed. […] The attachment of beads to cells was scored at 400× and 800× magnification on a compound microscope. An estimate of the number of beads and the presence of cell clusters was recorded for each group and compared with a negative control.

Assay [2] relates to red blood cells (RBCs). Nature of the assay: Localisation of biotin to RBC surface by conjugation with avidin ALEXAFLUOR (fluorescence microscopy). Set-up: key to fluorescent signal intensity grade: 1 (low); 2 (moderate); 3 (bright); 4 (very bright). Here is the method:
The use of aqueous solutions of the construct designated Biotin-S3-S4-S2-chol (III) and the construct designated Biotin-S3-S4-S5-DOPE (IV) in the localisation of biotin (F) to cell surfaces was also compared. Solutions of the two constructs were prepared at substantially equimolar concentrations. The use of the solutions was assessed across a concentration range from 0 to 500 μM (0.5 mM). A 0.5 mM solution of the construct designated Biotin-S3-S4-S2-chol (III) was prepared by dissolving 0.4 mg of the construct in 514 μL of PBS. […] A 0.5 mM stock solution of the construct designated Biotin-S3-S4-S5-DOPE (IV) was prepared by dissolving 2 mg of the construct in 1942 μL of phosphate buffered saline (PBS). Each 0.5 mM solution was warmed to 37° C. for 10 minutes, vortexed and sonicated for 30 seconds to ensure complete dissolution of the construct in the aqueous medium. A dilution series was prepared for each construct to provide a total volume of 100 μL at each of the following concentrations: […]. Equal volumes (40 μL) of packed, washed red blood cells (RBCs) and solutions of constructs at different concentrations were mixed in a glass kimble tube. The tubes were incubated at 37° C. for 20 minutes in a water bath with periodic (3 x) agitation. The incubated cells were washed 3× with PBS before being resuspended in a cell preservative (CELPRESOL™) for storage at 4° C. overnight.
as §1
Conjugation with avidin ALEXAFLUOR™ was evaluated as described in the publication of Oliver et al (2011). An aliquot containing 0.02 mg avidin ALEXAFLUOR™ was mixed with a volume ([…]) of PBS containing BSA to provide a 0.1 mg/mL solution. Equal volumes 20 μL of packed RBCs and the solution of avidin ALEXAFLUOR™ were mixed and incubated at 37° C. for 30 minutes. The cells were then washed 3× with PBS before placing a drop (10 μL) on a glass microscope slide for fluorescent microscopy (WIB filter at 400× magnification). Cells were graded for fluorescence intensity over two micrograph fields of view. Grades determined via the eye piece were correlated with the corresponding photomicrographs (1.9 sec exposure). Grades were assigned according to the following scale: 1 (low), 2 (moderate), 3 (bright) and 4 (very bright). The morphology of the cells was also recorded (“normal” or “poiked”).

Assay [3] concerns O group red blood cells (RBCs). The assay is described as follows: Serology of kodecytes with monoclonal preparations. Also noted: scale not given here. Conditions: kodecytes prepared at 200 μg/mL construct. On the procedure:
The use of aqueous solutions of the construct designated Atri-S1-chol (I), the construct designated Atri-S1-S5-DOPE (V) and the construct designated Atri-S1-S5-S4-S5-DOPE (VI) in the localisation of Atri (F) to cell surfaces was also compared. (The constructs designated Atri-S1-S5-DOPE (V) and […] (VI) (FIG. 11) were prepared according to Bovin et al (2005) and Bovin et al (2009)). Volumes (40 μL) of packed, washed O group red blood cells (RBCs) were resuspended in equal volumes of solutions of each of the three constructs at a concentration of 200 μg/mL in PBS. The resuspended RBCs were incubated at room temperature for 4 hours prior to storage at 4° C. overnight. Serology was performed as described by Bovin et al (2005) using a range of monoclonal preparations and sera.

Consider `CCCCCCCC/C=C\CCCCCCCC(=O)OCC(COP(=O)([O-])OCCNC(=O)CCCCC(=O)NCC(=O)NCC(=O)N(CC(=O)[O-])CC(=O)NCC(=O)NCC(=O)N(CC(=O)[O-])CC(=O)NCCNC(=O)CN(CC(=O)[O-])C(=O)CNC(=O)CNC(=O)CN(CC(=O)[O-])C(=O)CNC(=O)CNC(=O)CCCC[C@@H]1SC[C@@H]2NC(=O)N[C@@H]21)OC(=O)CCCCCCC/C=C\CCCCCCCC.[Na+].[Na+].[Na+].[Na+].[Na+]` (some centres unmarked) [Biotin-S3-S4-S5-DOPE (IV), reference compound], for which, in assay [1], the “attachment of avidinylated beads, comparison of the two constructs” value is “comparable results”. The “staining at higher concentrations” value in assay [2] (100 and 500 μM) is “poor staining”. For the same molecule, the “fluorescent signal intensity grade” value in assay [2] (constructs at concentrations of 10 and 25 μM, avidin ALEXAFLUOR) worked out at 2.

On to `CCCCCCCC/C=C\CCCCCCCC(=O)OCC(COP(=O)([O-])OCCNC(=O)CCCCC(=O)NCC(=O)NCC(=O)N(CC(=O)[O-])CC(=O)NCC(=O)NCC(=O)N(CC(=O)[O-])CC(=O)NCCNC(=O)CN(CC(=O)[O-])C(=O)CNC(=O)CNC(=O)CN(CC(=O)[O-])C(=O)CNC(=O)CNC(=O)CCCCC(=O)NCCCO[C@@H]1O[C@H](CO)[C@H](O)[C@H](O[C@H]2O[C@H](CO)[C@H](O)[C@H](O)[C@H]2NC(C)=O)[C@H]1O[C@@H]1O[C@@H](C)[C@@H](O)[C@@H](O)[C@@H]1O)OC(=O)CCCCCCC/C=C\CCCCCCCC.[Na+].[Na+].[Na+].[Na+].[Na+]` (some centres unmarked) [VI, reference compound], for which the Serology score in assay [3] (Anti-B (ABO2) Diagast), in assay [3] (Anti-B ALBAclone), in assay [3] (Anti-B Biotec), in assay [3] (Anti-B CSL Epiclone), in assay [3] (Anti-B CSL) and in assay [3] (Anti-B Diagast) was 0 throughout. The Serology score in assay [3] (Anti-B Diagnostics Scotland), in assay [3] (Anti-B Dominion (Novaclone)), in assay [3] (Anti-B Gama), in assay [3] (Anti-B Immucor), in assay [3] (Anti-B Millipore) and in assay [3] (Anti-B Ortho-BioClone) was 0 each time. Besides, the Serology score in assay [3] (Anti-B Ortho-MoltenClone), in assay [3] (Anti-B Span) and in assay [3] (Anti-B ortho) was 0 in each case.

For `CC(=O)NC1C(OC2C(O)C(CO)OC(OCCCNC(=O)OC3CCC4(C)C(=CCC5C4CCC4(C)C(C(C)CCCC(C)C)CCC54)C3)C2OC2OC(C)C(O)C(O)C2O)OC(CO)C(O)C1O` (centres unmarked) [I], the Serology score in assay [3] (Anti-A (ABO1) Diagast), in assay [3] (Anti-A ALBAclone), in assay [3] (Anti-A BRG), in assay [3] (Anti-A Biotest), in assay [3] (Anti-A CSL Epiclone) and in assay [3] (Anti-A CSL) was 0 throughout. Further, the Serology score in assay [3] (Anti-A Diagast), in assay [3] (Anti-A Diagnostics Scotland), in assay [3] (Anti-A Lorne), in assay [3] (Anti-A Ortho-BioClone), in assay [3] (Anti-A Span) and in assay [3] (Anti-A ortho) was 0 throughout. Besides, the Serology score in assay [3] (Anti-A, B CSL) was found to be 0; in assay [3] (Anti-A, B Diagast), 0; in assay [3] (Anti-A, B Diagnostics Scotland), 0; in assay [3] (Anti-A/B ALBAclone), 0; in assay [3] (Anti-A/B CSL Epiclone), 0; in assay [3] (Anti-A/B Dominion (Novaclone)), 0. Further, the Serology score in assay [3] (Anti-B (ABO2) Diagast), in assay [3] (Anti-B ALBAclone), in assay [3] (Anti-B Biotec), in assay [3] (Anti-B CSL Epiclone), in assay [3] (Anti-B CSL) and in assay [3] (Anti-B Diagast) was 0 each time. In addition, the Serology score in assay [3] (Anti-B Diagnostics Scotland), in assay [3] (Anti-B Dominion (Novaclone)), in assay [3] (Anti-B Gama), in assay [3] (Anti-B Immucor), in assay [3] (Anti-B Millipore) and in assay [3] (Anti-B Ortho-BioClone) was 0 throughout. Besides, the Serology score in assay [3] (Anti-B Ortho-MoltenClone), in assay [3] (Anti-B Span), in assay [3] (Anti-B ortho) and in assay [3] (Diagast Anti-A/B (ABO3)) was 0 in each case.

Regarding `CCCCCCCCC=CCCCCCCCC(=O)OCC(COP(=O)([O-])OCCNC(=O)CCCCC(=O)NCCCOC1OC(CO)C(O)C(OC2OC(CO)C(O)C(O)C2NC(C)=O)C1OC1OC(C)C(O)C(O)C1O)OC(=O)CCCCCCCC=CCCCCCCCC.[Na+]` (centres unmarked) [V, reference compound], the Serology score was determined as 0 in assay [3] (Anti-A, B Diagast); 0 in assay [3] (Anti-B (ABO2) Diagast); 0 in assay [3] (Anti-B ALBAclone); 0 in assay [3] (Anti-B Biotec); 0 in assay [3] (Anti-B CSL Epiclone); 0 in assay [3] (Anti-B CSL). Moreover, the Serology score in assay [3] (Anti-B Diagast), in assay [3] (Anti-B Diagnostics Scotland), in assay [3] (Anti-B Dominion (Novaclone)), in assay [3] (Anti-B Gama), in assay [3] (Anti-B Immucor) and in assay [3] (Anti-B Millipore) was 0 throughout. The Serology score in assay [3] (Anti-B Ortho-BioClone), in assay [3] (Anti-B Ortho-MoltenClone), in assay [3] (Anti-B Span) and in assay [3] (Anti-B ortho) was 0 throughout.
